Data published in the supplement of paper PMC10307832.

Tests used:
Experiment in all cases: relative viability (nuclei count vs DMSO), 5 days (fraction); higher = more cells survive
IPA-3 + AZD7762 = compound: C1=CC=C2C(=C1)C=CC(=C2SSC3=C(C=CC4=CC=CC=C43)O)O [IPA-3] + NC(=O)Nc1cc(-c2cccc(F)c2)sc1C(=O)N[C@H]1CCCNC1 [AZD7762] (partner 0.2 µM)
Summary of the method: (§1)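 Lung cancer cell lines were pin-tool dosed in 1536-well plates on the day after seeding, with either a lone drug or a fixed anchor-drug dose plus five library-drug doses (not always all listed) in √10 steps. Nuclei were counted on 4× images after 5 days. Relative viability is the ratio of treated-well to vehicle-well nuclei counts, with each value a median of duplicate plates.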

IPA-3 + Vorinostat = compound: C1=CC=C2C(=C1)C=CC(=C2SSC3=C(C=CC4=CC=CC=C43)O)O [IPA-3] + O=C(CCCCCCC(=O)Nc1ccccc1)NO [Vorinostat] (partner 1 µM)
Summary of the method: as §1

Doramapimod + Bortezomib = compound: Cc1ccc(-n2nc(C(C)(C)C)cc2NC(=O)Nc2ccc(OCCN3CCOCC3)c3ccccc23)cc1 [Doramapimod] + CC(C)C[C@H](NC(=O)[C@H](Cc1ccccc1)NC(=O)c1cnccn1)B(O)O [Bortezomib] (partner 0.002 µM)
Summary of the method: as §1

Doramapimod + Alpelisib = compound: Cc1ccc(-n2nc(C(C)(C)C)cc2NC(=O)Nc2ccc(OCCN3CCOCC3)c3ccccc23)cc1 [Doramapimod] + Cc1nc(NC(=O)N2CCC[C@H]2C(N)=O)sc1-c1ccnc(C(C)(C)C(F)(F)F)c1 [Alpelisib] (partner 2 µM)
Summary of the method: as §1

Cell Line	relative viability (IPA-3 + AZD7762; first compound 0.2 µM)	relative viability (IPA-3 + AZD7762; first compound 0.6325 µM)	relative viability (IPA-3 + AZD7762; first compound 2 µM)	relative viability (IPA-3 + AZD7762; first compound 6.325 µM)	relative viability (IPA-3 + AZD7762; first compound 20 µM)	relative viability (IPA-3 + Vorinostat; first compound 0.2 µM)	relative viability (IPA-3 + Vorinostat; first compound 0.6325 µM)	relative viability (IPA-3 + Vorinostat; first compound 2 µM)	relative viability (IPA-3 + Vorinostat; first compound 6.325 µM)	relative viability (IPA-3 + Vorinostat; first compound 20 µM)	relative viability (Doramapimod + Bortezomib; first compound 0.02 µM)	relative viability (Doramapimod + Bortezomib; first compound 0.06325 µM)	relative viability (Doramapimod + Bortezomib; first compound 0.2 µM)	relative viability (Doramapimod + Bortezomib; first compound 0.6325 µM)	relative viability (Doramapimod + Bortezomib; first compound 2 µM)	relative viability (Doramapimod + Alpelisib; first compound 0.02 µM)	relative viability (Doramapimod + Alpelisib; first compound 0.06325 µM)	relative viability (Doramapimod + Alpelisib; first compound 0.2 µM)	relative viability (Doramapimod + Alpelisib; first compound 0.6325 µM)	relative viability (Doramapimod + Alpelisib; first compound 2 µM)
NCI-H322M	0.503	0.6	0.616	0.808	0.786	0.92	0.948	1.02	1.07	1.11	1.26	1.43	1.18	1.26	1.35	0.774	0.734	0.785	0.801	0.933
NCI-H441	1.32	0.972	1.33	1.21	1.22	0.881	0.637	0.748	0.731	0.948	0.308		0.522	0.362	0.266	0.694		0.813	0.704	0.779
NCI-H460	0.756	0.704	0.632	0.7	0.634	0.94	0.665	0.729	0.626	0.504	0.961	1.12	1.11	1.24	1.05	0.446	0.467	0.372	0.441	0.357
NCI-H596	1.1	1.07	1.11	1.21	1.3	0.722	0.772	0.578	0.694	0.656	0.994	1.13	1.21	1.24	1.02	0.486	0.502	0.469	0.529	0.431
NCI-H647	0.675	0.408	0.555	0.402	0.0953	0.628	0.376	0.581	0.544	0.151	1.13	0.985	0.912	1.05	0.861	1.26	1.15	1.14	1.12	1.03
NCI-H650	1.1	1.01	1.08	0.935	1.08	0.465	0.518	0.361	0.486	0.507	0.882	1.11	1.03	0.737	0.874	1.16	1.17	1.23	1.34	1.23
NCI-H727	0.652	0.604	0.674	0.617	0.706	1.25	1.01	1.27	1.07	1.2	0.853	0.818	0.775	0.705	0.87	0.5	0.587	0.598	0.675	0.528
NCI-H838	1.05	0.94	1	0.967	1.08	0.776	0.697	0.75	0.706	0.794	1.05	0.965	1.01	1.22	0.73	0.973	0.953	1	1.09	0.971
